Laboratory results published in patent US20230167101A1, “NOVEL INHIBITORS OF HISTONE […] P300/CBP FOR CANCER THERAPY” (BAYLOR COLLEGE OF MEDICINE, priority 2020, published 2023).

Tests used:
MCF-7 (Tam-R) = assay: Cell growth inhibition, tamoxifen-resistant MCF-7; assay type: cell-based; settings: read-out: EC50, antiproliferative activity
Experimental: The anti-proliferation assays for non-breast cancer cells were done using a previously developed assay. In brief, for Kasumi-1 cells, […] were added into 96-well plates and cultured with increasing concentrations of a compound in RPMI-1640 medium supplemented with 20% fetal bovine serum and penicillin (100 U/mL) and streptomycin (100 µg/mL) at 37° C. in a 5% CO2 atmosphere with 100% humidity. For solid tumor cells, 10^5 cells per well were added into 96-well plates and cultured in Dulbecco’s Modified Eagle’s Medium (DMEM) supplemented with 10% fetal bovine serum and penicillin (100 U/mL) and streptomycin (100 µg/mL) overnight. Upon addition of increasing concentrations of a compound, cells were incubated for 5 days. Cell viability was assessed by using an XTT assay kit (Roche) for leukemia cells or an MTT assay (Sigma) for attachment cells. For the breast cancer MCF-7 cells, culture and inhibition assays were performed according to our previous methods in Ref. 25 and 26. Compound EC50 values were calculated from dose response curves using Prism 5.0.

[1] = tested on: ER+ breast cancer MCF-7 cells; assay: RNA sequencing / gene set enrichment analysis (GSEA); assay type: cell-based, human; settings: MCF-7, 6 µM, 48 h, with estradiol 10 nM
Experimental: RNA sequencing was used to investigate how treatment with p300 HAT inhibitor 12 affects gene expression in ER^+ breast cancer MCF-7 cells. […] RNA sequencing data were mapped onto the human genome and gene expression profiles were determined and normalized. […] Gene set enrichment analysis (GSEA)(31) was used to analyze significant gene expression changes between these three groups of MCF-7 cells.
Upon starvation (culturing in phenol red-free DMEM medium with 10% charcoal treated FBS to remove hydrophobic hormones such as estrogens) for 7 days, MCF-7 cells were treated with the p300 inhibitor (6 µM) or DMSO control, in the presence or absence of (10 nM) estradiol (E2) for 48 hours. Total RNA was extracted using RNeasy Plus Mini Kit (Qiagen), according to the manufacturer’s instruction.
The RNA integrity for each sample was assessed with a RNA 6000 Nano chip on a 2100 Bioanalyzer (Agilent; Santa Clara, CA). The average RNA integrity score for the sample set was 6.48. Sequencing libraries were prepared using the TruSeq Stranded Total RNA Library Prep Kit (Illumina, Inc; San Diego, CA). Concisely, ribosomal RNA (rRNA) was depleted from total RNA where the remaining (ribo-depleted RNA) was purified, fragmented for 7.5 minutes, and primed for cDNA synthesis. […] The concentration of each library was determined by quantitative PCR (qPCR) by the KAPA Library Quantification Kit for Next Generation Sequencing (KAPA Biosystems; Woburn, MA).
Libraries were normalized to 50 nmol/L in 10 mM Tris-Cl, pH8.5 with 0.1% Tween 20 then pooled evenly. […] Sequencing-by-synthesis (SBS) was performed on a HiSeq 2500 utilizing v2 chemistry with paired-end 101 bp reads and a 6 bp index read culminating in an average output of 20 million paired-end reads (or 40 million total reads) per sample. Sequence read data were processed and converted to FASTQ format by Illumina BaseSpace analysis software (v2.0.13).
RNAseq data files were trimmed using Trim Galore!. […] Gene expression was assessed and fragments per kilobase of transcript per million (FPKM) values were determined using Stringtie. […]

## CC(C)(C)c1ccc(-c2cc(CNCC3CCNCC3)sc2-c2ccc(C(C)(C)C)cc2)cc1 [Compound 12]
MCF-7 (Tam-R)
  EC50: 3.4 µM
[1]; FIG. 7A
  normalized enrichment score (NES), genes suppressed by p300 knockdown (GSE31873): -3.32
[1]; FIG. 7B
  NES, gene set upregulated by estradiol: -9.19
[1]; FIG. 7C
  NES, genes suppressed by estradiol: 7.41
